Data from patent US11186564B2, “Dual NAV1.2/5HT2a inhibitors for treating CNS disorders” (Sunovion Pharmaceuticals Inc., priority 2016, dated 2021).

Experiments:
[1] = biological target: T1, recombinant human serotonin receptor 5-HT2A (Homo sapiens, UniProt P28223); assay: 5-HT2A antagonist Ca2+ assay in CHO-K1 cells (method A aequorin luminescence / method B FLIPR fluorescence); type: cell-based; settings: antagonist mode vs EC80 of reference agonist, method A or B, read-out: 5HT2A IC50
T1 construct: expressed in transfected cells; method B: loaded with Ca2+ dye
T1 sequence (P28223 whole entry): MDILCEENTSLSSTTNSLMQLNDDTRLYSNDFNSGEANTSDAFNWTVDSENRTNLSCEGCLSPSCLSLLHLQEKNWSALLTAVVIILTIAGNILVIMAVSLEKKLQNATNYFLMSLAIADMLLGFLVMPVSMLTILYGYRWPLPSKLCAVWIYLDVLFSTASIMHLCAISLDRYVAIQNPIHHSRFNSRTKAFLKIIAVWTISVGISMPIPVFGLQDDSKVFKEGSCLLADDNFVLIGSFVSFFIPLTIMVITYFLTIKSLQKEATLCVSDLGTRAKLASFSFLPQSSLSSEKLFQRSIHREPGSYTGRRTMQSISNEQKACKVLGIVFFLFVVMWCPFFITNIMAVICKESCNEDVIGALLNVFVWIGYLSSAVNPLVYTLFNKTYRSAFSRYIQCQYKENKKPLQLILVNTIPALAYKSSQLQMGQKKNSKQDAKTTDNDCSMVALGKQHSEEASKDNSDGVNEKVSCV
Procedure, shortened: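 Method A: CHO-K1 cells co-expressing human 5-HT2A and mitochondrial apoaequorin were given reference agonist at EC80 15 min after compound, with luminescence read. Method B: dye-loaded 5-HT2A CHO-K1 cells were pretreated with compound, then given serotonin at EC80, with FLIPR fluorescence read. IC50s came from nonlinear fits of percent inhibition.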

[2] = biological target: human sodium channel NaV1.2 (Homo sapiens, UniProt Q99250); assay: NaV1.2 inhibition, automated patch-clamp (Q-Patch HTX), slow inactivated state (state C); type: cell-based; settings: hNaV1.2 CHO cells, slow inactivated state; for IC50: read-out: NaV1.2 IC50; for inhibition at 10 µM: 10 μM compound, read-out: NaV1.2 (% inh), 10 μM; for inhibition at 1 µM: 1 μM compound, read-out: NaV1.2 (% inh), 1 μM
human sodium channel NaV1.2, sequence (Q99250 whole entry): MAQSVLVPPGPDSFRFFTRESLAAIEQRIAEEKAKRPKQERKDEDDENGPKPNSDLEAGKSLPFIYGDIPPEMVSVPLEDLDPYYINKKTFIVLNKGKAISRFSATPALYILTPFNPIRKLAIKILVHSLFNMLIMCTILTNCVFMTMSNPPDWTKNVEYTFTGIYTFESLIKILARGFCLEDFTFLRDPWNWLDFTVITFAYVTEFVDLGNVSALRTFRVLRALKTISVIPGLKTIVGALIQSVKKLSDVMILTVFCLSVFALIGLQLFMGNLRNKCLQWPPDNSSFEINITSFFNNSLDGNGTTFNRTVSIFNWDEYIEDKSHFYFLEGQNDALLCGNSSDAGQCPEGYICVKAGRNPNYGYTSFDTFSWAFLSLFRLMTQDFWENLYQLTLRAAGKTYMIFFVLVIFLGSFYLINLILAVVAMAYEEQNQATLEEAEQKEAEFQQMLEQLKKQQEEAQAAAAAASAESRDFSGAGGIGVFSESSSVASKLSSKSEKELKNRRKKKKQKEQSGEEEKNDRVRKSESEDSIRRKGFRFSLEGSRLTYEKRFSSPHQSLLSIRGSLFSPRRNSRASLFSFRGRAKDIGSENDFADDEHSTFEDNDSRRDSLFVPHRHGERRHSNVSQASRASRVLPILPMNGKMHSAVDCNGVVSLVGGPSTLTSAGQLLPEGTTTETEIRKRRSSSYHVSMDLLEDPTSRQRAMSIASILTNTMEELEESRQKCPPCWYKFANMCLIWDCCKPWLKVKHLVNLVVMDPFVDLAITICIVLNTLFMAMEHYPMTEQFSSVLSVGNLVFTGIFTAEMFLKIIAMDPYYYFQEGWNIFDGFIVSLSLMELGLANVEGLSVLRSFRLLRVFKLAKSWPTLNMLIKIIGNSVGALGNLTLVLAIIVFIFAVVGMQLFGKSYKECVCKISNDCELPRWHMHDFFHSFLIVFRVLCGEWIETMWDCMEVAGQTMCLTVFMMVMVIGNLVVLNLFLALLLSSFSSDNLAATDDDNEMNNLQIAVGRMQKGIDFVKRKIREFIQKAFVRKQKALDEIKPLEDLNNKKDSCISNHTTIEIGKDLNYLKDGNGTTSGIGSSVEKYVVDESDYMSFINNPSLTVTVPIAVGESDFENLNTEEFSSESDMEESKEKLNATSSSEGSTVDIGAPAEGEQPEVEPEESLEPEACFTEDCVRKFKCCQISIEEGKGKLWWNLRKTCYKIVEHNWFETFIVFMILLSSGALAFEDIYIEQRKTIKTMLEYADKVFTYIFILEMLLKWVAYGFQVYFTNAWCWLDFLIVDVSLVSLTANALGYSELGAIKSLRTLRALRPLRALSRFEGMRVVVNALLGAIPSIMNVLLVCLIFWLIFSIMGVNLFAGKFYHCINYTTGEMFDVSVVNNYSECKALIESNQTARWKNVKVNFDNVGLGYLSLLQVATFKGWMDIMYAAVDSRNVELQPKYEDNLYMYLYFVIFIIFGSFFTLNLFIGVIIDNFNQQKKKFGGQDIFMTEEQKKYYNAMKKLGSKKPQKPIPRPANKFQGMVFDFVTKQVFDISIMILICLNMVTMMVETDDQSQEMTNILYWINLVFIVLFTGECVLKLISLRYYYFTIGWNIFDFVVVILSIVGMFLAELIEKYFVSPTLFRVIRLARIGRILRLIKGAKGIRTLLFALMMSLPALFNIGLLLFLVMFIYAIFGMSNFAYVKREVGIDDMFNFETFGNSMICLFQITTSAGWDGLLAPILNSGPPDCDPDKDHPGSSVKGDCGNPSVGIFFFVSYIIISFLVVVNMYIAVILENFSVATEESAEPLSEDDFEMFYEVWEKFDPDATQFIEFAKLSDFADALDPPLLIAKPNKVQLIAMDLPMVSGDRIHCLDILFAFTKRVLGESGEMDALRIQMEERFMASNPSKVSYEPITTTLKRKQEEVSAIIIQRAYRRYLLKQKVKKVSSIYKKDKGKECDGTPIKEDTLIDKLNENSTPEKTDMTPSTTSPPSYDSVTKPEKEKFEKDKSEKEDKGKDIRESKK
Procedure, shortened: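 CHO K-1 cells stably expressing human NaV1.2, whole-cell automated patch clamp, holding −100 mV; slow-inactivated state (state C) read at a 5 ms step to 0 mV after 10 s at −50 mV and 15 ms at −90 mV. Percent inhibition vs vehicle; IC50 by nonlinear least-squares fit.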

Compound | IC50 [1] [µM] | inhibition at 10 µM [2] [%] | inhibition at 1 µM [2] [%] | IC50 [2] [µM]
c1ccc(O[C@H]2COC3(C2)CN(C[C@@H]2CCc4ccccc42)C3)cc1 (single isomer, unassigned) [Compound 367] | 0.28 | – | – | 0.39
Fc1ccc(OC2CCN(CCC3CCc4cnccc43)CC2)cc1 (centres unmarked) [Example 173, 5-(2-(4-(4-fluorophenoxy)piperidin-1-yl)ethyl)-6,7-dihydro-5H-cyclopenta[c]pyridine] | 0.01 | – | – | 3.17
COc1ccc2c(c1)C(CN1CCC(OCc3ccccc3Cl)CC1)CC2 (centres unmarked) [Example 244, 4-((2-chlorobenzyl)oxy)-1-((6-methoxy-2,3-dihydro-1H-inden-1-yl)methyl)piperidine] | 0.06 | – | – | 0.16
c1ccc([C@@H]2COC3(CCN(C[C@@H]4CCc5ccccc54)CC3)C2)cc1 (single isomer, unassigned) [Compound 376] | 0.02 | – | – | 0.51
Fc1ccc(O[C@H]2CCN(CC3CCc4cccnc43)C2)cc1 (stereo partly drawn) [Example 8, 7-(((S)-3-(4-fluorophenoxy)pyrrolidin-1-yl)methyl)-6,7-dihydro-5H-cyclopenta[b]pyridine] | 0.98 | – | – | 7.45
COc1ccc2c(c1)C(CN1CCC(OCc3ccccc3F)CC1)CC2 (centres unmarked) [Example 243, 4-((2-fluorobenzyl)oxy)-1-((6-methoxy-2,3-dihydro-1H-inden-1-yl)methyl)piperidine] | 0.36 | – | – | 0.1
O=C1c2ccccc2CCN1CCN1C[C@@H]2CC[C@H]1CN2c1ccccc1 [Example 316, 2-(2-((1S,4S)-5-phenyl-2,5-diazabicyclo[2.2.2]octan-2-yl)ethyl)-3,4-dihydroisoquinolin-1(2H)-one] | 3.17 | – | – | 0.08
COc1ccccc1O[C@@H]1CCN(CC2Cc3ccccc3C2)C[C@@H]1C [Example 144, (3S,4R)-1-((2,3-dihydro-1H-inden-2-yl)methyl)-4-(2-methoxyphenoxy)-3-methylpiperidine] | 0.27 | – | – | 0.54
OC(CO[C@@H]1CCc2ccccc21)CN1CC[C@@H](Oc2ccc(F)cc2)C1 (stereo partly drawn) [Example 44, 1-(((R)-2,3-dihydro-1H-inden-1-yl)oxy)-3-((R)-3-(4-fluorophenoxy)pyrrolidin-1-yl)propan-2-ol] | 0.14 | – | – | 0.24
O[C@H](CO[C@@H]1CCCc2ccccc21)CN1CC[C@@H](Oc2ccc(F)cc2)C1 [Example 52, (S)-1-((R)-3-(4-fluorophenoxy)pyrrolidin-1-yl)-3-(((R)-1,2,3,4-tetrahydronaphthalen-1-yl)oxy)propan-2-ol] | 0.14 | – | – | 1.69
OC(COC1CCCCC1)CN1CCC2(CCN(c3ccccc3)C2)C1 (centres unmarked) [Example 344, 1-(cyclohexyloxy)-3-(7-phenyl-2,7-diazaspiro[4.4]nonan-2-yl)propan-2-ol] | 0.11 | – | – | 0.43
O[C@@H](COc1ccccc1)CN1CCC2(CCc3ccccc3O2)CC1 [Example 441, (R)-1-phenoxy-3-(spiro[chromane-2,4′-piperidin]-1′-yl)propan-2-ol] | 0.03 | – | 17 | –
O=C1c2ccccc2CCN1CCN1CCC2(CCc3ccccc3O2)CC1 [Example 422, 2-(2-(spiro[chromane-2,4′-piperidin]-1′-yl)ethyl)-3,4-dihydroisoquinolin-1(2H)-one] | 0.07 | – | – | 0.4
c1ccc(O[C@@H]2COC3(CCN(C[C@H]4CCc5ccccc54)CC3)C2)cc1 (single isomer, unassigned) [Compound 384] | 0.3 | – | – | 0.29
c1ccc(N2CCN(CC3CCc4ccccc43)CC2)cc1 (centres unmarked) [Example 55, 1-((2,3-dihydro-1H-inden-1-yl)methyl)-4-phenylpiperazine] | 0.01 | – | – | 4.12
COc1ccc2c(c1)C(CN1CCC(Oc3ccccc3)CC1)CC2 (centres unmarked) [Example 107, 1-((6-methoxy-2,3-dihydro-1H-inden-1-yl)methyl)-4-phenoxypiperidine] | 0.004 | – | – | 1.99
OC(COC1CCCCc2ccccc21)CN1CCC(Oc2ccccc2)CC1 (centres unmarked) [Example 240, 1-(4-phenoxypiperidin-1-yl)-3-((6,7,8,9-tetrahydro-5H-benzo[7]annulen-5-yl)oxy)propan-2-ol] | 0.11 | – | – | 0.96
Clc1cccc(N2CCN(CCc3ccccc3)CC2)c1 [Example 64, 1-(3-chlorophenyl)-4-phenethylpiperazine] | 0.04 | 93 | – | –
Fc1ccc(N2CCC3(CCN(CC4Cc5cccnc5C4)C3)C2)cc1 (centres unmarked) [Example 339, 2-((6,7-dihydro-5H-cyclopenta[b]pyridin-6-yl)methyl)-7-(4-fluorophenyl)-2,7-diazaspiro[4.4]nonane] | 0.87 | – | – | 2.27

Second part, led by results:

IC50 [1] [µM] | inhibition at 10 µM [2] [%] | inhibition at 1 µM [2] [%] | Compound | IC50 [2] [µM]
0.36 | 67 | – | COCc1cccc(OC2CCN(CCN3CCc4ccccc4C3=O)CC2)c1 [Example 196, 2-(2-(4-(3-(methoxymethyl)phenoxy)piperidin-1-yl)ethyl)-3,4-dihydroisoquinolin-1(2H)-one] | –
0.08 | – | -3 | c1cnc(OC2CCN(CC3CCc4ccccc43)CC2)nc1 (centres unmarked) [Example 125, 2-((1-((2,3-dihydro-1H-inden-1-yl)methyl)piperidin-4-yl)oxy) pyrimidine] | –
0.45 | 76 | – | COc1cccc(OC2CCN(CCN3CCCc4ccccc4C3=O)CC2)c1 [Example 205, 2-(2-(4-(3-methoxyphenoxy)piperidin-1-yl)ethyl)-2,3,4,5-tetrahydro-1H-benzo[c]azepin-1-one] | –
1.25 | 47 | – | N#Cc1cccc(OC2CCN(CCN3CCc4ccccc4C3=O)CC2)c1 [Example 197, 3-((1-(2-(1-oxo-3,4-dihydroisoquinolin-2(1H)-yl)ethyl)piperidin-4-yl)oxy)benzonitrile] | –
0.4 | – | 2 | Fc1ccc(OC2CCCCN(CC3CCc4ccccc43)C2)cc1 (centres unmarked) [Example 275, 1-((2,3-dihydro-1H-inden-1-yl)methyl)-3-(4-fluorophenoxy)azepane] | –
2.84 | 15 | – | O=C1c2ccccc2CCN1CCN1CCC(Oc2cccnc2)CC1 [Example 192, 2-(2-(4-(pyridin-3-yloxy)piperidin-1-yl)ethyl)-3,4-dihydroisoquinolin-1(2H)-one] | –
2.17 | 39 | – | CN(C)c1ccc(OC2CCN(CCN3CCc4ccccc4C3=O)CC2)cc1 [Example 201, 2-(2-(4-(4-(dimethylamino)phenoxy)piperidin-1-yl)ethyl)-3,4-dihydroisoquinolin-1(2H)-one] | –
0.01 | 54 | – | O=C1Cc2ccccc2N1CCCN1CCC(Oc2ccc(F)cc2)CC1 [Example 219, 1-(3-(4-(4-fluorophenoxy)piperidin-1-yl)propyl)indolin-2-one] | –
0.29 | – | -1 | CC1(C)Oc2ccccc2C1CN1CCC(Oc2ccccc2)CC1 (centres unmarked) [Example 131, 1-((2,2-dimethyl-2,3-dihydrobenzofuran-3-yl)methyl)-4-phenoxypiperidine] | –
0.04 | – | 7 | c1ccc2c(c1)CCC2CN1CCC2(CCc3cccnc3O2)CC1 (centres unmarked) [Example 406, 1-((2,3-dihydro-1H-inden-1-yl)methyl)-3′,4′-dihydrospiro[piperidine-4,2′-pyrano[2,3-b]pyridine]] | –
0.28 | – | 58 | c1ccc(OC2CCN(CCO[C@H]3CCc4ccccc43)CC2)cc1 [Example 217, (S)-1-(2-((2,3-dihydro-1H-inden-1-yl)oxy)ethyl)-4-phenoxypiperidine] | –
0.72 | – | 14 | COc1ccccc1O[C@H]1CCN(CC2Cc3cccnc3C2)[C@@H](C)C1 (stereo partly drawn) [Example 150, 6-(((2S,4S)-4-(2-methoxyphenoxy)-2-methylpiperidin-1-yl)methyl)-6,7-dihydro-5H-cyclopenta[b]pyridine] | –
0.04 | – | 44 | Cc1ccccc1OC1CCN(CC2Cc3cccnc3C2)CC1 (centres unmarked) [Example 137, 6-((4-(o-tolyloxy)piperidin-1-yl)methyl)-6,7-dihydro-5H-cyclopenta[b] pyridine] | –
0.08 | – | 41 | Fc1ccc(OC2CCN(CCC3COc4ccccc43)CC2)cc1 (centres unmarked) [Example 176, 1-(2-(2,3-dihydrobenzofuran-3-yl)ethyl)-4-(4-fluorophenoxy)piperidine] | –
0.05 | 72 | – | Fc1ccc(OC2CCN(CC3CCc4cccnc43)CC2)cc1 (centres unmarked) [Example 128, 7-((4-(4-fluorophenoxy)piperidin-1-yl)methyl)-6,7-dihydro-5H-cyclopenta[b]pyridine] | –
0.17 | – | 35 | Fc1ccc(OC2CCN(CC3Cc4ccccc4C3)CC2)cc1 [Example 154, 1-((2,3-dihydro-1H-inden-2-yl)methyl)-4-(4-fluorophenoxy)piperidine] | –
0.19 | – | 25 | O=C(CN1CCC(Oc2ccc(F)cc2)CC1)C1CCc2ccccc21 (centres unmarked) [Example 215, 1-(2,3-dihydro-1H-inden-1-yl)-2-(4-(4-fluorophenoxy)piperidin-1-yl)ethan-1-one] | –
0.19 | – | 27 | O=C1c2ccccc2CCN1CCN1CCCC(Oc2ccc(F)cc2)CC1 (centres unmarked) [Example 274, 2-(2-(4-(4-fluorophenoxy)azepan-1-yl)ethyl)-3,4-dihydroisoquinolin-1(2H)-one] | –
